Test results as given in patent publication US20080063668A1, “Nitroimidazole and terconazole composition and method” (priority 2006, published 2008).

What was measured:
Assay in all cases: Inhibition of bacteria growth, drug dilution tubes, anaerobic
Type in all cases: cell-based
Set-up in all cases: key to growth: (+) for growth; (−) for no growth; (±) for suboptimal growth after an initial observation of growth
Atopobium vaginae BAA-55 = system: Atopobium vaginae BAA-55
Protocol: (§1) Serial dilutions of tinidazole and terconazole were prepared by adding measured amounts of each substance to water (both individually and in combination). Seven bacterial organisms that are common pathogens in bacterial vaginosis were grown anaerobically in the medium as listed in Table 4 under a N2/H2/CO2 (85:5:10) head space atmosphere. [table] These cultures were diluted to a 0.5 McFarland standard prior to inoculation of drug dilution tubes. One (1) mL of the 0.5 McFarland preparation was inoculated to an anaerobically prepared test tube containing 0.8 mL of Difco anaerobic medium (DAMM) and 0.2 mL of appropriate diluted antimicrobial or antimicrobial combination for a total of 2 mL. The inoculated tubes were then incubated at 37° C. and monitored daily for growth. Growth was scored with a (+) for growth, (−) for no growth, and (±) for suboptimal growth after an initial observation of growth. Tinidazole is abbreviated as TNZ and terconazole is abbreviated as TER in Tables 5 through 11.

[1] = system: Gardnerella vaginalis ATCC 14019
Protocol: as §1

[2] = system: Mobiluncus mulieris ATCC 35243
Protocol: as §1

CC(C)N1CCN(c2ccc(OCC3COC(Cn4cncn4)(c4ccc(Cl)cc4Cl)O3)cc2)CC1 (stereo not drawn) [TER, cis-1-[p[[2-(2,4-dichlorophenyl)-2-(1 H-1,2,4-triazol-1-ylmethyl)-1,3-dioxolan-4-yl]methoxy]phenyl]-4-isopropylpiperazine]
growth (Atopobium vaginae BAA-55; TER 3.1 μg/ml, DAY 1): (+)
growth (Atopobium vaginae BAA-55; TER 3.1 μg/ml, DAY 2): (+)
growth (Atopobium vaginae BAA-55; TER 3.1 μg/ml, DAY 3): (+)
growth (Atopobium vaginae BAA-55; TER 3.1 μg/ml, DAY 4): (+)
growth (Atopobium vaginae BAA-55; TER 3.1 μg/ml, DAY 5): (+)
growth (Atopobium vaginae BAA-55; TER 6.2 μg/ml, DAY 1): (+)
growth (Atopobium vaginae BAA-55; TER 6.2 μg/ml, DAY 2): (+)
growth (Atopobium vaginae BAA-55; TER 6.2 μg/ml, DAY 3): (+)
growth (Atopobium vaginae BAA-55; TER 6.2 μg/ml, DAY 4): (+)
growth (Atopobium vaginae BAA-55; TER 6.2 μg/ml, DAY 5): (+)
growth (Atopobium vaginae BAA-55; TER 12.5 μg/ml, DAY 1): (+)
growth (Atopobium vaginae BAA-55; TER 12.5 μg/ml, DAY 2): (+)
growth (Atopobium vaginae BAA-55; TER 12.5 μg/ml, DAY 3): (+)
growth (Atopobium vaginae BAA-55; TER 12.5 μg/ml, DAY 4): (+)
growth (Atopobium vaginae BAA-55; TER 12.5 μg/ml, DAY 5): (+)
growth (Atopobium vaginae BAA-55; TER 25 μg/ml, DAY 1): (+)
growth (Atopobium vaginae BAA-55; TER 25 μg/ml, DAY 2): (+)
growth (Atopobium vaginae BAA-55; TER 25 μg/ml, DAY 3): (+)
growth (Atopobium vaginae BAA-55; TER 25 μg/ml, DAY 4): (+)
growth (Atopobium vaginae BAA-55; TER 25 μg/ml, DAY 5): (+)
growth (Atopobium vaginae BAA-55; TER 50 μg/ml, DAY 1): (+)
growth (Atopobium vaginae BAA-55; TER 50 μg/ml, DAY 2): (+)
growth (Atopobium vaginae BAA-55; TER 50 μg/ml, DAY 3): (+)
growth (Atopobium vaginae BAA-55; TER 50 μg/ml, DAY 4): (+)
growth (Atopobium vaginae BAA-55; TER 50 μg/ml, DAY 5): (+)
growth (Atopobium vaginae BAA-55; TER 100 μg/ml, DAY 1): (−)
growth (Atopobium vaginae BAA-55; TER 100 μg/ml, DAY 2): (−)
growth (Atopobium vaginae BAA-55; TER 100 μg/ml, DAY 3): (+)
growth (Atopobium vaginae BAA-55; TER 100 μg/ml, DAY 4): (+)
growth (Atopobium vaginae BAA-55; TER 100 μg/ml, DAY 5): (+)
growth (Atopobium vaginae BAA-55; TER 200 μg/ml, DAY 1): (−)
growth (Atopobium vaginae BAA-55; TER 200 μg/ml, DAY 2): (−)
growth (Atopobium vaginae BAA-55; TER 200 μg/ml, DAY 3): (−)
growth (Atopobium vaginae BAA-55; TER 200 μg/ml, DAY 4): (+)
growth (Atopobium vaginae BAA-55; TER 200 μg/ml, DAY 5): (+)
growth (Atopobium vaginae BAA-55; TER 400 μg/ml, DAY 1): (−)
growth (Atopobium vaginae BAA-55; TER 400 μg/ml, DAY 2): (−)
growth (Atopobium vaginae BAA-55; TER 400 μg/ml, DAY 3): (−)
growth (Atopobium vaginae BAA-55; TER 400 μg/ml, DAY 4): (−)
growth (Atopobium vaginae BAA-55; TER 400 μg/ml, DAY 5): (−)
growth (Atopobium vaginae BAA-55; TER 800 μg/ml, DAY 1): (−)
growth (Atopobium vaginae BAA-55; TER 800 μg/ml, DAY 2): (−)
growth (Atopobium vaginae BAA-55; TER 800 μg/ml, DAY 3): (−)
growth (Atopobium vaginae BAA-55; TER 800 μg/ml, DAY 4): (−)
growth (Atopobium vaginae BAA-55; TER 800 μg/ml, DAY 5): (−)
antibacterial activity compared with tinidazole (Atopobium vaginae BAA-55; Tables 6 through 11): superior to the antibacterial compound tinidazole
antibacterial activity compared with tinidazole [1]: superior to the antibacterial compound tinidazole
growth ([1]; TER 3.1 μg/ml, DAY 1): (+)
growth ([1]; TER 3.1 μg/ml, DAY 2): (+)
growth ([1]; TER 3.1 μg/ml, DAY 3): (+)
growth ([1]; TER 3.1 μg/ml, DAY 4): (+)
growth ([1]; TER 3.1 μg/ml, DAY 5): (+)
growth ([1]; TER 6.2 μg/ml, DAY 1): (+)
growth ([1]; TER 6.2 μg/ml, DAY 2): (+)
growth ([1]; TER 6.2 μg/ml, DAY 3): (+)
growth ([1]; TER 6.2 μg/ml, DAY 4): (+)
growth ([1]; TER 6.2 μg/ml, DAY 5): (+)
growth ([1]; TER 12.5 μg/ml, DAY 1): (+)
growth ([1]; TER 12.5 μg/ml, DAY 2): (+)
growth ([1]; TER 12.5 μg/ml, DAY 3): (+)
growth ([1]; TER 12.5 μg/ml, DAY 4): (+)
growth ([1]; TER 12.5 μg/ml, DAY 5): (+)
growth ([1]; TER 25 μg/ml, DAY 1): (+)
growth ([1]; TER 25 μg/ml, DAY 2): (+)
growth ([1]; TER 25 μg/ml, DAY 3): (+)
growth ([1]; TER 25 μg/ml, DAY 4): (+)
growth ([1]; TER 25 μg/ml, DAY 5): (+)
growth ([1]; TER 50 μg/ml, DAY 1): (+)
growth ([1]; TER 50 μg/ml, DAY 2): (+)
growth ([1]; TER 50 μg/ml, DAY 3): (+)
growth ([1]; TER 50 μg/ml, DAY 4): (+)
growth ([1]; TER 50 μg/ml, DAY 5): (+)
growth ([1]; TER 100 μg/ml, DAY 1): (+)
growth ([1]; TER 100 μg/ml, DAY 2): (+)
growth ([1]; TER 100 μg/ml, DAY 3): (+)
growth ([1]; TER 100 μg/ml, DAY 4): (+)
growth ([1]; TER 100 μg/ml, DAY 5): (+)
growth ([1]; TER 200 μg/ml, DAY 1): (+)
growth ([1]; TER 200 μg/ml, DAY 2): (+)
growth ([1]; TER 200 μg/ml, DAY 3): (+)
growth ([1]; TER 200 μg/ml, DAY 4): (+)
growth ([1]; TER 200 μg/ml, DAY 5): (+)
growth ([1]; TER 400 μg/ml, DAY 1): (+)
growth ([1]; TER 400 μg/ml, DAY 2): (+)
growth ([1]; TER 400 μg/ml, DAY 3): (+)
growth ([1]; TER 400 μg/ml, DAY 4): (+)
growth ([1]; TER 400 μg/ml, DAY 5): (+)
growth ([1]; TER 800 μg/ml, DAY 1): (−)
growth ([1]; TER 800 μg/ml, DAY 2): (−)
growth ([1]; TER 800 μg/ml, DAY 3): (−)
growth ([1]; TER 800 μg/ml, DAY 4): (−)
growth ([1]; TER 800 μg/ml, DAY 5): (−)
growth ([2]; TER 3.1 μg/ml, DAY 1): (+)
growth ([2]; TER 3.1 μg/ml, DAY 2): (+)
growth ([2]; TER 3.1 μg/ml, DAY 3): (+)
growth ([2]; TER 3.1 μg/ml, DAY 4): (+)
growth ([2]; TER 3.1 μg/ml, DAY 5): (+)
growth ([2]; TER 6.2 μg/ml, DAY 1): (+)
growth ([2]; TER 6.2 μg/ml, DAY 2): (+)
growth ([2]; TER 6.2 μg/ml, DAY 3): (+)
growth ([2]; TER 6.2 μg/ml, DAY 4): (+)
growth ([2]; TER 6.2 μg/ml, DAY 5): (+)
growth ([2]; TER 12.5 μg/ml, DAY 1): (+)
growth ([2]; TER 12.5 μg/ml, DAY 2): (+)
growth ([2]; TER 12.5 μg/ml, DAY 3): (+)
growth ([2]; TER 12.5 μg/ml, DAY 4): (+)
growth ([2]; TER 12.5 μg/ml, DAY 5): (+)
growth ([2]; TER 25 μg/ml, DAY 1): (+)
growth ([2]; TER 25 μg/ml, DAY 2): (+)
growth ([2]; TER 25 μg/ml, DAY 3): (+)
growth ([2]; TER 25 μg/ml, DAY 4): (+)
growth ([2]; TER 25 μg/ml, DAY 5): (+)
growth ([2]; TER 50 μg/ml, DAY 1): (+)
growth ([2]; TER 50 μg/ml, DAY 2): (+)
growth ([2]; TER 50 μg/ml, DAY 3): (+)
growth ([2]; TER 50 μg/ml, DAY 4): (+)
growth ([2]; TER 50 μg/ml, DAY 5): (+)
growth ([2]; TER 100 μg/ml, DAY 1): (+)
growth ([2]; TER 100 μg/ml, DAY 2): (+)
growth ([2]; TER 100 μg/ml, DAY 3): (+)
growth ([2]; TER 100 μg/ml, DAY 4): (+)
growth ([2]; TER 100 μg/ml, DAY 5): (+)
growth ([2]; TER 200 μg/ml, DAY 1): (+)
growth ([2]; TER 200 μg/ml, DAY 2): (+)
growth ([2]; TER 200 μg/ml, DAY 3): (+)
growth ([2]; TER 200 μg/ml, DAY 4): (+)
growth ([2]; TER 200 μg/ml, DAY 5): (+)
growth ([2]; TER 400 μg/ml, DAY 1): (−)
growth ([2]; TER 400 μg/ml, DAY 2): (−)
growth ([2]; TER 400 μg/ml, DAY 3): (−)
growth ([2]; TER 400 μg/ml, DAY 4): (−)
growth ([2]; TER 400 μg/ml, DAY 5): (−)
growth ([2]; TER 800 μg/ml, DAY 1): (−)
growth ([2]; TER 800 μg/ml, DAY 2): (−)
growth ([2]; TER 800 μg/ml, DAY 3): (−)
growth ([2]; TER 800 μg/ml, DAY 4): (−)
growth ([2]; TER 800 μg/ml, DAY 5): (−)
antibacterial activity compared with tinidazole ([2]; Tables 6 through 11): superior to the antibacterial compound tinidazole
